Laboratory results reported in patent US6528456B2, “Herbicidal 2-pyrazolyl-6-aryloxypyri(mi)dines” (BASF Aktiengesellschaft, priority 1999, dated 2003).

Tests used:
Type in all cases: in vivo
Ipomoea hederacea = test: Pre-emergence test; settings: 3 weeks after treatment
Procedure: (§1) To evaluate their herbicidal activity, compounds according to the invention are tested using a representative range of plants: IPHOE Ipomoea hederacea The pre-emergence tests involve spraying a liquid formulation of the compound onto the soil in which the seeds of the plant species mentioned above has recently been sown. The soil used in the tests is a prepared horticultural loam. The formulations used in the tests are prepared from solutions of the test compounds in acetone containing 0.4% by weight of an alkylphenol/ethylene oxide condensate available under the trade mark TRITON X-155. These acetone solutions are diluted with water and the resulting formulations applied at dosage levels corresponding to 0.025 kg, 0.100 kg or 0.400 kg of active material per hectare in a volume equivalent to 900 litres per hectare. In these tests untreated sown soil are used as controls. From 2 to 4 weeks after treatment, the tests are terminated and each pot is examined and rated according to the rating system set forth below: [table]

Matricaria inodora = test: Pre-emergence test; settings: 3 weeks after treatment
Procedure: as §1, with “MATIN Matricaria inodora” for “IPHOE Ipomoea hederacea”

Hordeum vulgare [1] = test: Pre-emergence test; settings: 3 weeks after treatment
Procedure: as §1, with “HORVW Hordeum vulgare” for “IPHOE Ipomoea hederacea”

Triticum aestivum = test: Pre-emergence test; settings: 3 weeks after treatment
Procedure: as §1, with “TRZAW Triticum aestivum” for “IPHOE Ipomoea hederacea”

Zea mays = test: Pre-emergence test; settings: 3 weeks after treatment
Procedure: as §1, with “ZEAMX Zea mays” for “IPHOE Ipomoea hederacea”

Echinochloa crus-galli = test: Post-emergence test; settings: 2-4 weeks after treatment
Procedure: (§2) To evaluate their herbicidal activity, compounds according to the invention are tested using a representative range of plants: ECHCG Echinochloa crus-galli [table] […] These acetone solutions are diluted with water and the resulting formulations applied at dosage levels equivalent of about 0.1 to 0. 4 kg per hectare of test compound per pot. After spraying the plants are placed on greenhouse benches and are cared for in the usual manner, commensurate with conventional greenhouse practices. From 2 to 4 weeks after treatment, the seedling plants are examined and rated according to the rating system provided above.

Hordeum vulgare [2] = test: Post-emergence test; settings: 2-4 weeks after treatment
Procedure: as §2, with “HORVW Hordeum vulgare” for “ECHCG Echinochloa crus-galli”

Q: `Cn1nc(C(F)(F)F)cc1Oc1cc(C#N)cc(-c2cc(C(F)(F)F)nn2C)n1` [Example 3, 4-Cyano-2-(1-methyl-3-trifluoromethylpyrazol-5-yloxy)-6-(1-methyl-3-trifluoromethylpyrazol-5-yl)pyridine] was tested. Which IPOHE herbicidal rating (Ipomoea hederacea; 0.025 kg/ha) did it give?
A: 2 (2 - Slight effect)

Q: What about the IPOHE herbicidal rating (Ipomoea hederacea; 0.100 kg/ha) of the same compound?
A: 2 (2 - Slight effect)

Q: What about the IPOHE herbicidal rating (Ipomoea hederacea; 0.400 kg/ha) of the same compound?
A: 9 (9 - Complete kill)

Q: What about the MATIN herbicidal rating (Matricaria inodora; 0.025 kg/ha) of the same compound?
A: 9 (9 - Complete kill)

Q: What about the MATIN herbicidal rating (Matricaria inodora; 0.100 kg/ha) of the same compound?
A: 9 (9 - Complete kill)

Q: What about the MATIN herbicidal rating (Matricaria inodora; 0.400 kg/ha) of the same compound?
A: 9 (9 - Complete kill)

Q: And the HORVW herbicidal rating (Hordeum vulgare [1]; 0.025 kg/ha)?
A: 2 (2 - Slight effect)

Q: And the HORVW herbicidal rating (Hordeum vulgare [1]; 0.100 kg/ha)?
A: 3 (3 - Moderate effect)

Q: And the HORVW herbicidal rating (Hordeum vulgare [1]; 0.400 kg/ha)?
A: 5 (5 - Definite injury)

Q: What about the TRZAW herbicidal rating (Triticum aestivum; 0.025 kg/ha) of the same compound?
A: 0 (0 - No effect)

Q: What about the TRZAW herbicidal rating (Triticum aestivum; 0.100 kg/ha) of the same compound?
A: 0 (0 - No effect)

Q: What about the TRZAW herbicidal rating (Triticum aestivum; 0.400 kg/ha) of the same compound?
A: 4 (4 - Injury)

Q: And the ZEAMX herbicidal rating (Zea mays; 0.025 kg/ha)?
A: 3 (3 - Moderate effect)

Q: What about the ZEAMX herbicidal rating (Zea mays; 0.100 kg/ha) of the same compound?
A: 3 (3 - Moderate effect)

Q: And the ZEAMX herbicidal rating (Zea mays; 0.400 kg/ha)?
A: 5 (5 - Definite injury)

Q: What about the ECHCG herbicidal rating (Echinochloa crus-galli; 0.1 kg/ha) of the same compound?
A: 4 (4 - Injury)

Q: What about the ECHCG herbicidal rating (Echinochloa crus-galli; 0.4 kg/ha) of the same compound?
A: 4 (4 - Injury)

Q: And the HORVW herbicidal rating (Hordeum vulgare [2]; 0.1 kg/ha)?
A: 3 (3 - Moderate effect)

Q: What about the HORVW herbicidal rating (Hordeum vulgare [2]; 0.4 kg/ha) of the same compound?
A: 5 (5 - Definite injury)

Q: Which IPOHE herbicidal rating (Ipomoea hederacea; 0.025 kg/ha) does the source give for `Cc1cnc(-c2cc(C(F)(F)F)nn2C)nc1Oc1cc(C(F)(F)F)nn1C` [Example 4, 2-(1-Methyl-3-trifluoromethylpyrazol-5-yl)-6-(1-methyl-3-trifluoromethylpyrazol-5-yloxy)-5-methylpyrimidine] here?
A: 4 (4 - Injury)

Q: And the IPOHE herbicidal rating (Ipomoea hederacea; 0.100 kg/ha)?
A: 6 (6 - Herbicidal effect)

Q: What about the IPOHE herbicidal rating (Ipomoea hederacea; 0.400 kg/ha) of the same compound?
A: 9 (9 - Complete kill)

Q: And the MATIN herbicidal rating (Matricaria inodora; 0.025 kg/ha)?
A: 8 (8 - Approaching complete kill)

Q: What about the MATIN herbicidal rating (Matricaria inodora; 0.100 kg/ha) of the same compound?
A: 8 (8 - Approaching complete kill)

Q: And the MATIN herbicidal rating (Matricaria inodora; 0.400 kg/ha)?
A: 9 (9 - Complete kill)

Q: What about the HORVW herbicidal rating (Hordeum vulgare [1]; 0.025 kg/ha) of the same compound?
A: 2 (2 - Slight effect)

Q: What about the HORVW herbicidal rating (Hordeum vulgare [1]; 0.100 kg/ha) of the same compound?
A: 4 (4 - Injury)

Q: And the HORVW herbicidal rating (Hordeum vulgare [1]; 0.400 kg/ha)?
A: 5 (5 - Definite injury)

Q: And the TRZAW herbicidal rating (Triticum aestivum; 0.025 kg/ha)?
A: 1 (1 - Trace effect)

Q: And the TRZAW herbicidal rating (Triticum aestivum; 0.100 kg/ha)?
A: 2 (2 - Slight effect)

Q: What about the TRZAW herbicidal rating (Triticum aestivum; 0.400 kg/ha) of the same compound?
A: 4 (4 - Injury)

Q: What about the ZEAMX herbicidal rating (Zea mays; 0.025 kg/ha) of the same compound?
A: 2 (2 - Slight effect)

Q: And the ZEAMX herbicidal rating (Zea mays; 0.100 kg/ha)?
A: 2 (2 - Slight effect)

Q: What about the ZEAMX herbicidal rating (Zea mays; 0.400 kg/ha) of the same compound?
A: 3 (3 - Moderate effect)

Q: What about the ECHCG herbicidal rating (Echinochloa crus-galli; 0.1 kg/ha) of the same compound?
A: 8 (8 - Approaching complete kill)

Q: What about the ECHCG herbicidal rating (Echinochloa crus-galli; 0.4 kg/ha) of the same compound?
A: 8 (8 - Approaching complete kill)

Q: What about the HORVW herbicidal rating (Hordeum vulgare [2]; 0.1 kg/ha) of the same compound?
A: 3 (3 - Moderate effect)

Q: And the HORVW herbicidal rating (Hordeum vulgare [2]; 0.4 kg/ha)?
A: 5 (5 - Definite injury)

Q: What does the source list for `Cc1cc(Oc2cccc(C(F)(F)F)c2)nc(-c2cc(C(F)(F)F)nn2C)c1` [Example 63]?
A: IPOHE herbicidal rating (Ipomoea hederacea; 0.025 kg/ha): 0 (0 - No effect); IPOHE herbicidal rating (Ipomoea hederacea; 0.100 kg/ha): 0 (0 - No effect); IPOHE herbicidal rating (Ipomoea hederacea; 0.400 kg/ha): 3 (3 - Moderate effect); MATIN herbicidal rating (Matricaria inodora; 0.100 kg/ha): 6 (6 - Herbicidal effect); MATIN herbicidal rating (Matricaria inodora; 0.400 kg/ha): 9 (9 - Complete kill); HORVW herbicidal rating (Hordeum vulgare [1]; 0.025 kg/ha): 0 (0 - No effect); HORVW herbicidal rating (Hordeum vulgare [1]; 0.100 kg/ha): 0 (0 - No effect); HORVW herbicidal rating (Hordeum vulgare [1]; 0.400 kg/ha): 2 (2 - Slight effect); TRZAW herbicidal rating (Triticum aestivum; 0.025 kg/ha): 0 (0 - No effect); TRZAW herbicidal rating (Triticum aestivum; 0.100 kg/ha): 0 (0 - No effect); TRZAW herbicidal rating (Triticum aestivum; 0.400 kg/ha): 0 (0 - No effect); ZEAMX herbicidal rating (Zea mays; 0.025 kg/ha): 0 (0 - No effect); ZEAMX herbicidal rating (Zea mays; 0.100 kg/ha): 0 (0 - No effect); ZEAMX herbicidal rating (Zea mays; 0.400 kg/ha): 0 (0 - No effect); ECHCG herbicidal rating (Echinochloa crus-galli; 0.1 kg/ha): 3 (3 - Moderate effect); ECHCG herbicidal rating (Echinochloa crus-galli; 0.4 kg/ha): 3 (3 - Moderate effect); HORVW herbicidal rating (Hordeum vulgare [2]; 0.1 kg/ha): 3 (3 - Moderate effect); HORVW herbicidal rating (Hordeum vulgare [2]; 0.4 kg/ha): 3 (3 - Moderate effect)
